Test [1] concerns the target T1, Serine/threonine-protein kinase D2 (Homo sapiens) (UniProt Q9BZL6).
T1 sequence (whole entry): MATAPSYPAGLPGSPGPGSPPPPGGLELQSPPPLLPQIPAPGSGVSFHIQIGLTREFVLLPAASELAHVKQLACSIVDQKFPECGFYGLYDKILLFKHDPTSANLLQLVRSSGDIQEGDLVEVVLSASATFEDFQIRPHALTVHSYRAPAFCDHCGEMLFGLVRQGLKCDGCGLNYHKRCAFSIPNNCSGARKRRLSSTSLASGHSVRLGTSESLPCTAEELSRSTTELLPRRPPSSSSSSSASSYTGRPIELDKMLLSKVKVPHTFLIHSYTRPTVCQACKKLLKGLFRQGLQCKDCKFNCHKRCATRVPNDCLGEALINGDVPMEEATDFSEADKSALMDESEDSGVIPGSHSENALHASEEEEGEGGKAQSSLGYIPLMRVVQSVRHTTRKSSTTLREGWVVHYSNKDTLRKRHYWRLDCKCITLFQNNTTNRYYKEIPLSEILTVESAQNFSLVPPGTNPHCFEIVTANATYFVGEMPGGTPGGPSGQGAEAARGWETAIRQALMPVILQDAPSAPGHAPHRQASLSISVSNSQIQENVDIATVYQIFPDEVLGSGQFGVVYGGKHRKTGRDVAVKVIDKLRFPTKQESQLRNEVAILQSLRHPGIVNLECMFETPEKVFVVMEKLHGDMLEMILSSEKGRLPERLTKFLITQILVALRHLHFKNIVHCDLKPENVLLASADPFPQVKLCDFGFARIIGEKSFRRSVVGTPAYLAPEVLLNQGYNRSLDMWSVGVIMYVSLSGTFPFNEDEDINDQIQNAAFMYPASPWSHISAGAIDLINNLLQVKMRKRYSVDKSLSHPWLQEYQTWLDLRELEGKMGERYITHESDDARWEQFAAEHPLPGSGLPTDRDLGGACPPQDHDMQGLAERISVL
Briefly: Inhibition of human full length PKD2 expressed in baculovirus assessed as substrate phosphorylation using fluorescence-labelled peptides as substrate at 2 uM after 90 mins by microfluidic peptide phosphorylation assay.

In test [2] the target is Tyrosine-protein kinase Fyn (Homo sapiens) (UniProt P06241). Briefly: Inhibition of human full length FYN expressed in baculovirus assessed as substrate phosphorylation using fluorescence-labelled peptides as substrate at 2 uM after 90 mins by microfluidic peptide phosphorylation assay.
Test [3] relates to Tyrosine-protein kinase ABL1 (Homo sapiens), P00519 [H396P]. As to the kind of experiment: Inhibition of human truncated ABL H396P mutant expressed in baculovirus assessed as substrate phosphorylation using fluorescence-labelled peptides as substrate at 0.06 uM after 90 mins by microfluidic peptide phosphorylation assay.
Test [4] concerns the target Ribosomal protein S6 kinase alpha-1 (Homo sapiens) (UniProt Q15418). Briefly: Inhibition of human full length RSK1 expressed in baculovirus assessed as substrate phosphorylation using fluorescence-labelled peptides as substrate at 95 uM after 90 mins by microfluidic peptide phosphorylation assay.
The target in test [5] is T2, Serine/threonine-protein kinase DCLK2 (Homo sapiens) (UniProt Q8N568).
T2 sequence (whole entry): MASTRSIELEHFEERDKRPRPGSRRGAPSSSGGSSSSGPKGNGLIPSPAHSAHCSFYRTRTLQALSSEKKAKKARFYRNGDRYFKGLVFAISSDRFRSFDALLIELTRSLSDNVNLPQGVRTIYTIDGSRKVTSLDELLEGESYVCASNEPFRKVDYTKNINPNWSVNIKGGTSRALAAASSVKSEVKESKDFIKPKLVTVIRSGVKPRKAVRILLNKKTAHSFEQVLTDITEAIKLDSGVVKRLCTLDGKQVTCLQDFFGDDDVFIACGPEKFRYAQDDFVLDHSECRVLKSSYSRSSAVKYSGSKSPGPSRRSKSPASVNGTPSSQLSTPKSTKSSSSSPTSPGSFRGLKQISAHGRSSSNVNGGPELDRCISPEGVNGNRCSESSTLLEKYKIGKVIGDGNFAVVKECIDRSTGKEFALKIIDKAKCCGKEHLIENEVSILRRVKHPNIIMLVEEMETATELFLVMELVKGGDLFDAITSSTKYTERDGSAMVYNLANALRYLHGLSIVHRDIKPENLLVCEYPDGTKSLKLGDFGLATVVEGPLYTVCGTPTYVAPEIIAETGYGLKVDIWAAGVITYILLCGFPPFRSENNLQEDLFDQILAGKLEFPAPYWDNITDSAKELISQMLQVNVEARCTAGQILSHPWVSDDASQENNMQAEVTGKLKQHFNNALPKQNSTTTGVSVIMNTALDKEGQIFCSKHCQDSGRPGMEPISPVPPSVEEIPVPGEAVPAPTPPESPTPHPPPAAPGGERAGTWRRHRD
Briefly: Inhibition of human full length DCAMKL2 expressed in baculovirus assessed as substrate phosphorylation using fluorescence-labelled peptides as substrate at 70 uM after 90 mins by microfluidic peptide phosphorylation assay.

Test [6] concerns the target MAP/microtubule affinity-regulating kinase 3 (Homo sapiens) (UniProt P27448). As to the kind of experiment: Inhibition of human full length c-TAK1 expressed in Escherichia coli cell assessed as substrate phosphorylation using fluorescence-labelled peptides as substrate at 420 uM after 90 mins by microfluidic peptide phosphorylation assay.
Test [7] concerns the target T3, cGMP-dependent protein kinase 1 (Homo sapiens) (UniProt Q13976).
T3 sequence (whole entry): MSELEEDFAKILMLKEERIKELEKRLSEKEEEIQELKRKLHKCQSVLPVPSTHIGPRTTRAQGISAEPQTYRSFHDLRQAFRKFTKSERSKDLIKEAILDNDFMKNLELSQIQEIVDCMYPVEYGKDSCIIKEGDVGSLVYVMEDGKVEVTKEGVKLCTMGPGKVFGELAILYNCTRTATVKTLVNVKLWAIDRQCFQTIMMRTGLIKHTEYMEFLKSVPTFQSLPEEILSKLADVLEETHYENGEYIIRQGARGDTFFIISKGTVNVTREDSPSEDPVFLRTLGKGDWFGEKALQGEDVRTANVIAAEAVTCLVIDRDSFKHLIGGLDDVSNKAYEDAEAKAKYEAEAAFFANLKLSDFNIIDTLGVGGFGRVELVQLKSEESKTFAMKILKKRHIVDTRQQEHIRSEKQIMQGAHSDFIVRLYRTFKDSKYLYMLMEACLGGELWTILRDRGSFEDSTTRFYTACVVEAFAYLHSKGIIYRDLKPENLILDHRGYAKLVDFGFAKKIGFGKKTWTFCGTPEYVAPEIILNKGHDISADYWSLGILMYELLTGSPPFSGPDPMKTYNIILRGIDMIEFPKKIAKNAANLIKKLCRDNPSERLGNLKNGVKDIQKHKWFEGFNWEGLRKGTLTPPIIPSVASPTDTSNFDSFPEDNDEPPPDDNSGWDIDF
Briefly: Inhibition of human full length PKG-1beta expressed in baculovirus assessed as substrate phosphorylation using fluorescence-labelled peptides as substrate at 420 uM after 90 mins by microfluidic peptide phosphorylation assay.

Test [8] deals with T1, Serine/threonine-protein kinase D2 (Homo sapiens). As to the kind of experiment: Inhibition of human full length PKD2 expressed in baculovirus assessed as substrate phosphorylation using fluorescence-labelled peptides as substrate at 420 uM after 90 mins by microfluidic peptide phosphorylation assay.

The structures appear in SMILES notation.

Ribosomal protein S6 kinase alpha-1 (Homo sapiens), sequence (Q15418 whole entry): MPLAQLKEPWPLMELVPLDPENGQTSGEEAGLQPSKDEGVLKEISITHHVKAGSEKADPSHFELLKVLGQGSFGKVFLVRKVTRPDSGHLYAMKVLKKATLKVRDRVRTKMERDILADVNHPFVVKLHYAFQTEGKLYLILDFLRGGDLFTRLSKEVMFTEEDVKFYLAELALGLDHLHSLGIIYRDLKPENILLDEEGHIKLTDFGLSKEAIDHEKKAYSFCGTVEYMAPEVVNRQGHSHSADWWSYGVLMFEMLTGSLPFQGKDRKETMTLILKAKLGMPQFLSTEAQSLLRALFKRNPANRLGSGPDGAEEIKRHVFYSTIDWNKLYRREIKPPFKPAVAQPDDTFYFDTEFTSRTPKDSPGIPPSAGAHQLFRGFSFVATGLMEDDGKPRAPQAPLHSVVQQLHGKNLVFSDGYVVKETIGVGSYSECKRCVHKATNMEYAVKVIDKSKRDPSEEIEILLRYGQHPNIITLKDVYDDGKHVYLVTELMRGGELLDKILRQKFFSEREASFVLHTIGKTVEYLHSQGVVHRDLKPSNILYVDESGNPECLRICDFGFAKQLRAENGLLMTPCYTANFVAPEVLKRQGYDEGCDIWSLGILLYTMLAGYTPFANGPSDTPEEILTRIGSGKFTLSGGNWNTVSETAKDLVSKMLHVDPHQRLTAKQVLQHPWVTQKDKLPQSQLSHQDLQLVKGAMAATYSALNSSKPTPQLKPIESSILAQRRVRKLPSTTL
Tyrosine-protein kinase Fyn (Homo sapiens), sequence (P06241 2-537 limits assumed): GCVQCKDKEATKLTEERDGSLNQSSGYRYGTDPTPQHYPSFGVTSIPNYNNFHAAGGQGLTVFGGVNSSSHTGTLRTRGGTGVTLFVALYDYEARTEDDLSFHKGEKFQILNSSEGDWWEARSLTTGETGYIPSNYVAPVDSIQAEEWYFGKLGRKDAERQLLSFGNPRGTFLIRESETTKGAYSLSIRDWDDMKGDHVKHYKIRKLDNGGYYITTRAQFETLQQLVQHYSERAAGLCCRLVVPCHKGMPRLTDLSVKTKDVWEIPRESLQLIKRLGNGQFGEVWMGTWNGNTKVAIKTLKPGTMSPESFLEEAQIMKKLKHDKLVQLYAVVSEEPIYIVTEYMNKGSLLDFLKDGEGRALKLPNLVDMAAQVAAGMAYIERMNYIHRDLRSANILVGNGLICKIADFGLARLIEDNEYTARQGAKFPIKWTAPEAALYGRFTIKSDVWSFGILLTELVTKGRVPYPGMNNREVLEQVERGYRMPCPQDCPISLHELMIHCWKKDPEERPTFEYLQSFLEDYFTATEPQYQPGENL
MAP/microtubule affinity-regulating kinase 3 (Homo sapiens), sequence (P27448 whole entry, looked up): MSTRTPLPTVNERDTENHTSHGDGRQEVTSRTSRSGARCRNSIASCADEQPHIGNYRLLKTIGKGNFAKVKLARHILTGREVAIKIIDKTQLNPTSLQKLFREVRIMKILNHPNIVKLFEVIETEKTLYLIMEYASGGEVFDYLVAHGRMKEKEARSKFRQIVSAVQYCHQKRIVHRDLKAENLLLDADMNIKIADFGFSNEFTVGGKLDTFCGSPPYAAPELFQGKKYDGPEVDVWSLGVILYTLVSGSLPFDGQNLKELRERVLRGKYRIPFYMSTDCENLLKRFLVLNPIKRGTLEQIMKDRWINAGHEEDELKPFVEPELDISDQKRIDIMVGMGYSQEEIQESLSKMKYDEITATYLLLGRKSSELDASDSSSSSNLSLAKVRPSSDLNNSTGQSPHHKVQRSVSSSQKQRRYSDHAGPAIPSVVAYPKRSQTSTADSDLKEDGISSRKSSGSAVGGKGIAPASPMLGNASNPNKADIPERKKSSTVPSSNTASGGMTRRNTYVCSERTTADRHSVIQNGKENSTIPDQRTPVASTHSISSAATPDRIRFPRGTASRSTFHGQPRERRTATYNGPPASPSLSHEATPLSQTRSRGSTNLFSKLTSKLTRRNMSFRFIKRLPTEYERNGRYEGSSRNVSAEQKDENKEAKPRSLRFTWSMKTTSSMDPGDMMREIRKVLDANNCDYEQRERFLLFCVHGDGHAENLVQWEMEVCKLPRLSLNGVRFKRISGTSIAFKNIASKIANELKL

A word on the inhibition: it is the relative decrease from the control value, in per cent. Regarding `NC1CCN(c2ncnc3[nH]ccc23)CC1`, the figures for the inhibition in test [1] and in test [2] were 6.5% and 5%, respectively.

As for `NC1(Cc2ccc(Cl)cc2)CCN(c2ncnc3[nH]ccc23)CC1`, the inhibition in test [3] was determined as 0.5%.

With `NCCc1ccc(-c2ncnc3[nH]cnc23)cc1`, the inhibition in test [4] turned out to be 83.5%.

In the case of `CNCc1ccc(-c2ncnc3[nH]cnc23)cc1`, the inhibition in test [5] is 20.5%.

In the case of `c1nc(N2CCOCC2)c2nc[nH]c2n1`, the inhibition in test [6] was determined as 86.5%; in test [7], 95.5%; in test [8], 70%.

Source of the values: ChEMBL document CHEMBL3132769, “Fragment growing to retain or alter the selectivity of anchored kinase hinge-binding fragments” (Medchemcomm, 2014).
